Assay results reported in patent EP1673354B1, “ARYLINDENOPYRIDINES AND ARYLINDENOPYRIMIDINES AND THEIR USE AS ADENOSINE A2A RECEPTOR ANTAGONISTS” (Ortho-McNeil Pharmaceutical, Inc., priority 2003, dated 2005).

Key:
C57bl/6 mice = assay: Haloperidol-induced catalepsy study in C57bl/6 mice; format: in vivo; details: orally dosed at 10 mg/kg; haloperidol 1.5 mg/kg s.c.; test 1 hour after oral dose
Experimental: Haloperidol-induced catalepsy study in C57bl/6 mice
Mature male C57bl/6 mice (9-12 week old from ACE) were housed two per cage in a rodent room. Room temperature was maintained at 64-79 degrees and humidity at 30-70% and room lighting at 12 hrs light/12 hrs dark cycle. On the study day, mice were transferred to the study room. The mice were injected subcutaneously with haloperidol (Sigma H1512, 1.0 mg/ml made in 0.3% tartaric acid, then diluted to 0.2 mg/ml with saline) or vehicle at 1.5 mg/kg, 7.5ml/kg. The mice were then placed in their home cages with access to water and food. 30 minutes later, the mice were orally dosed with vehicle (0.3% Tween 80 in saline) or compounds at 10 mg/kg, 10 ml/kg (compounds, 1mg/ml, made in 0.3% Tween 80 in saline, sonicated to obtain a uniform suspension). The mice were then placed in their home cages with access to water and food. 1 hour after oral dose, the catalepsy test was performed. A vertical metal-wire grid (1.0 cm squares) was used for the test. The mice were placed on the grid and given a few seconds to settle down and their immobility time was recorded until the mice moved their back paw(s). The mice were removed gently from the grid and put back on the grid and their immobility time was counted again. The measurement was repeated three times. The average of three measurements was used for data analysis.

Adenosine A1 receptor = target: T1, Adenosine A1 receptor (Homo sapiens, UniProt P30542); assay: A1 antagonist function (no method described); format: cell-based
T1 sequence (P30542 1-326): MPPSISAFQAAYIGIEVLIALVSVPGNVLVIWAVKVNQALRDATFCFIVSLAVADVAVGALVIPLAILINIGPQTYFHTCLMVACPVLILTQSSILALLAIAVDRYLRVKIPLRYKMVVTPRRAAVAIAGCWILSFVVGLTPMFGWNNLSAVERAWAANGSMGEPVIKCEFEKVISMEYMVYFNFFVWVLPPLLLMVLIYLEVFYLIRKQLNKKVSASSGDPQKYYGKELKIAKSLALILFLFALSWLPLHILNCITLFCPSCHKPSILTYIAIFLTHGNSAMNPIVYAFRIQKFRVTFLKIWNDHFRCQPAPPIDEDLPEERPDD

[1] = target: T2, human A2a adenosine receptor (Homo sapiens, UniProt P29274); assay: Ligand binding assay for adenosine A2a receptor ([3H]CGS21680, HEK293 plasma membrane); details: radioligand [3H]CGS21680, HEK293 membranes, room temperature 2 hours; read-out: Ki (nM) A2a binding
T2 construct: purchased PerkinElmer RB-HA2a; host or cells: HEK293 cell plasma membrane
T2 sequence (P29274 whole entry): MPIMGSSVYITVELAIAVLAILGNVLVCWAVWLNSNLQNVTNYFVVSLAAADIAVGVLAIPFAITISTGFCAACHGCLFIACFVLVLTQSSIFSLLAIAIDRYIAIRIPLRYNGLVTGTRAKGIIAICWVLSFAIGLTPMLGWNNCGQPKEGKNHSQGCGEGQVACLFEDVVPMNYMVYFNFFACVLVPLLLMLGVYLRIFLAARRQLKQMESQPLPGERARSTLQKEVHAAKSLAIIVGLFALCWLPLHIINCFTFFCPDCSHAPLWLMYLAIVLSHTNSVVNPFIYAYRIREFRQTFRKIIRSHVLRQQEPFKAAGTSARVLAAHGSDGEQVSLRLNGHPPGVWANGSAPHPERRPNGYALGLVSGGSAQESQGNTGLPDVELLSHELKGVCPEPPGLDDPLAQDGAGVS
Experimental: Ligand Binding Assay for Adenosine A2a Receptor
Ligand binding assay of adenosine A2a receptor was performed using plasma membrane of HEK293 cells containing human A2a adenosine receptor (PerkinElmer, RB-HA2a) and radioligand [^3H]CGS21680 (PerkinElmer, NET1021). Assay was set up in 96-well polypropylene plate in total volume of 200 µl by sequentially adding 20 µL1:20 diluted membrane, 130 µLassay buffer (50 mM Tris·HCl, pH7.4 10 mM MgCl2, 1 mM EDTA) containing [^3H] […] Nonspecific binding was determined by […] NECA. Reaction was carried out at room temperature for 2 hours before filtering through 96-well GF/C filter plate pre-soaked in 50 mM Tris·HCl, pH7.4 containing 0.3% polyethylenimine. Plates were then washed 5 times with cold 50 mM Tris·HCl, pH7.4, dried and sealed at the bottom. Microscintillation fluid 30 µl was added to each well and the top sealed. Plates were counted on Packard Topcount for [^3H]. Data was analyzed in Microsoft Excel and GraphPad Prism programs.

[2] = target: T3, human adenosine A2a receptors (Homo sapiens, UniProt P29274); assay: Adenosine A2a receptor functional assay, antagonist mode (cAMP-inducible beta-galactosidase reporter, 50 nM NECA); format: cell-based; details: CHO-K1 cells, read-out: Ki (nM) A2a antagonist function
T3 construct: expressed in transfected cells; host or cells: CHO-K1 cells with cAMP-inducible beta-galactosidase reporter gene
T3 sequence (P29274 whole entry): as above
Experimental: Adenosine A2a Receptor Functional Assay
CHO-K1 cells overexpressing human adenosine A2a receptors and containing cAMP-inducible beta-galactosidase reporter gene were seeded at 40-50K/well into 96-well tissue culture plates and cultured for two days. On assay day, cells were washed once with 200 µL assay medium (F-12 nutrient mixture/0.1 % BSA). For agonist assay, adenosine A2a receptor agonist NECA was subsequently added and cell incubated at 37°C, 5% CO2 for 5 hrs before stopping reaction. In the case of antagonist assay, cells were incubated with antagonists for 5 minutes at R.T. followed by addition of 50 nM NECA. Cells were then incubated at 37°C, 5% CO2 for 5 hrs before stopping experiments by washing cells with PBS twice. 50 µL 1X lysis buffer (Promega, 5X stock solution, needs to be diluted to 1X before use) was added to each well and plates frozen at -20°C. For β-galactosidase enzyme colorimetric assay, plates were thawed out at room temperature and 50 µL 2X assay buffer (Promega) added to each well. Color was allowed to develop at 37°C for 1 h or until reasonable signal appeared. Reaction was then stopped with 150 µL 1 M sodium carbonate. […] Data was analyzed in Microsoft Excel and GraphPad Prism programs.

Row | Compound | inhibition of haloperidol-induced catalepsy (C57bl/6 mice) | Ki (Adenosine A1 receptor) | Ki [1] | Ki [2]
1 | CN(C)CCOC(=O)c1c(N)nc(-c2ccco2)c2c1-c1ccccc1C2=O [Compound 70, 9H-indeno[2,1-c]pyridine-4-carboxylic acid, 3-amino-1-furan-2-yl-9-oxo-, 2-dimethylamino-ethyl ester] | 87% | 20.1 nM | 9.89 nM | 0.44 nM
2 | Nc1nc(-c2ccco2)c2c(n1)-c1ccccc1C2=O [Compound 3, 2-amino-4-furan-2-yl-indeno[1,2-d]pyrimidin-5-one] | 90% | 0.288 nM |  | 
